Assay results published in patent publication US20080234188A1, “Antimicrobial Peptides” (The Hospital for Sick Children, priority 2001, published 2008).
Converted amounts (≈) assume the structure as drawn. Where a SMILES comes first, the peptide text is derived from it.

Tests used:
[1] = tested on: C500: E. coli, antibiotic strain; format: cell-based; conditions: for MIC C500 (active/inactive): Table 2, class symbols; for MIC C500: antibiotic strain
Excerpt: (§1) The bacterial strains used were E. coli C498, E. coli C500, Escherichia coli UB1005 and its antibiotic supersusceptible derivative DC2 (22); a clinical isolate of Staphylococcus epidermidis (C621); coryneform bacterial strain Corynebacterium xerosis (C875); and E. coli ATCC 25922, Staphylococcus aureus ATCC 25923, Enterococcus faecalis ATCC 29212, Bacillus subtilis ATCC 6633 and Pseudomonas aeruginosa ATCC 27853, all from American Type Culture Collection.
(§2) Peptide antibacterial activity was assessed by the method of R. Hancock et al. (Wu & Hancock (1999), J. Biol. Chem., v. 274, pp. 29-35). Test strains of bacteria from Mueller Hinton agar (MHA) plates were inoculated into 5 ml Mueller Hinton Broth (MHB) in tubes and grown overnight at 37° C. on a shaker (180 rpm). Serial dilutions of test peptides (at 10 times the required test concentrations) were made in 0.01% acetic acid, 0.2% BSA, in polypropylene or coated glass tubes as follows: the test peptide was (a) dissolved in distilled water at 20 times the required maximum concentration (enough final volume for all tests to be performed on a given day); (b) diluted into an equal volume of 0.02% acetic acid, 0.4% BSA to give 10 times the required maximum concentration; (c) serial doubling dilutions were performed in 0.01% acetic acid, 0.2% BSA to provide serial dilutions of peptides at 10 times the required test concentrations, e.g., 640, 320, 160, . . . 2.5 μg/ml. (No deleterious effects of long-term storage of peptides in these media have been detected). Overnight bacterial cultures were diluted in MHB to give 2−7×10^5 colony forming units/ml. Bacterial suspension (100 μl) was dispensed in each well; controls without bacteria were maintained in parallel. To each well was added 11 μl of 10× test peptide and plates were incubated at 37° C. for 18-24 hours, and checked again at 40-48 hours. Plates were read visually and at 600 nm in a microplate reader (Molecular Devices).
(§3) were synthesized. The antibacterial activity of these peptides was determined against both Gram-positive bacteria ([…], Corynebacterium xerosis) and Gram-negative bacteria (various strains of E. coli). The results are shown in Table 2, along with the average hydrophobicity of each peptide, calculated as described herein.

[2] = tested on: C498: E. coli, wild type strain; format: cell-based; conditions: for MIC C498 (active/inactive): Table 2, class symbols; for MIC C498: wild type strain
Excerpt: as §1, §2, §3

E. coli UB1005 = format: cell-based, Escherichia coli; conditions: UB1005
Excerpt: as §1, §2
(§4) A further number of the peptides of the invention were tested for antimicrobial activity against a range of Gram-positive and Gram-negative bacteria by the assay described immediately before Example 1.

[3] = Hydrophobicity (hydropathy) from reverse-phase HPLC retention scale; format: physicochemical; parameters: key to Average Hydrophobicity of Core Sequence / Mean Core segment Hydrophobicity: arithmetic average of Table 1 hydropathy values of constituent residues; key to Hydropathy: hydropathy scale from HPLC retention times of model peptides (Table 1); conditions: for Mean residue hydropathy of X-residue peptide / Hydropathy: Table 1; for Hydropathy: of the X-residue, from HPLC retention of KKAAAXAAAAAXAAWAAXAAAKKKK-amide peptides; for Average Hydrophobicity of Core Sequence: Table 2, calculated from Table 1 hydropathy values; for Mean Core segment Hydrophobicity: Table 3
Excerpt: The “hydrophobicity value” of an amino acid residue means the hydrophobicity value of that residue as shown in Table 1 or as calculated by the method described herein.
The “hydrophobicity value” of an amino acid sequence or peptide means the arithmetic average of the individual hydrophobicity values of the constituent amino acid residues of the sequence.
Various hydrophobicity scales for proteins and amino acids have been described in the literature but the inventors have established the hydrophobicity scale of Table 1 based on the retention times on HPLC of a series of hydrophobic model peptides, as described in Liu and Deber (1998), Biopolymers (Peptide Science), v. 47, pp. 41-62).
The hydrophobicity value shown for each amino acid in Table 1 as “hydropathy” may be used as the hydrophobicity value for that amino acid in any peptide whose hydrophobicity value has to be calculated. The “average hydrophobicity” of a peptide containing amino acids shown in Table 1 is calculated by determining the arithmetic average of the Table 1 “hydropathy” values for the constituent amino acids of the sequence.
Peptides in accordance with the invention may also include other amino acids. For an amino acid not included in Table 1, the hydrophobicity value may be determined by the same method as described herein for obtaining the values of Table 1. For example, a peptide such as KKAAAXAAAAAXAAXAAXAAAKKKK-amide (Sequence ID No: 1) may be synthesized, where X is the amino acid whose hydrophobicity value is to be determined, and the retention time of the peptide on HPLC is determined, as described in the Examples. Similar peptides where X is Lys or Phe are also prepared and their HPLC retention times determined. The retention time, Rx, is converted to the hydropathy value H for the selected amino acid using the equation
H=(10×ΔtRx-Lys/ΔtRPhe-Lys)−5.00
where ΔtRx-Lys=retention time difference in minutes between Rx and the retention time of the most hydrophilic peptide tested (X=Lys) and where ΔtRPhe-Lys=retention time difference in minutes between the most hydrophobic peptide tested (X=Phe) and the most hydrophilic (X=Lys).
The retention time of each peptide was determined on a C4 reversed-phase column (4.6×250 mm, 300 A pore size, 10 μ particle size). Equal amounts of each peptide were injected into the column and eluted at a flow rate of 1 mL/min, utilizing a linear AB gradient (2% B/min), where buffer A was 0.1% TFA/ddH2O, and buffer B was 0.1% TFA/acetonitrile. The retention time of each peptide reported here was the average of triplicate measurements.

[4] = tested on: Corynebacterium xerosis (C875); format: cell-based; conditions: for MIC C875 (active/inactive): Table 2, class symbols
Excerpt: as §1, §2, §3, §4

[5] = tested on: Staphylococcus epidermidis (C621); format: cell-based; conditions: for MIC C621 (active/inactive): Table 2, class symbols
Excerpt: as §1, §2, §3, §4

E. coli DC2 = experiment: Assay of antibacterial activity (MIC), E. coli DC2; format: cell-based, Escherichia coli; conditions: Table 3; Gram-negative
Excerpt: as §1, §2, §4

Row | Structure (SMILES) | MIC C500 (active/inactive) [1] | MIC C498 (active/inactive) [2] | MIC E. coli UB1005 (E. coli UB1005) | Mean residue hydropathy of X-residue peptide [3] | Hydropathy [3] | Average Hydrophobicity of Core Sequence [3] | Mean Core segment Hydrophobicity [3] | MIC C. xerosis C875 [4] | MIC C875 (active/inactive) [4] | MIC S. epidermidis C621 [5] | MIC C621 (active/inactive) [5] | MIC E. coli DC2 (E. coli DC2) | MIC C500 [1] | MIC C498 [2] | MIC C875 [4] | MIC C621 [5]
1 | CC(C)C[C@H](NC(=O)[C@H](C)NC(=O)[C@H](C)NC(=O)[C@H](C)NC(=O)[C@H](CCCCN)NC(=O)[C@@H](N)CCCCN)C(=O)N[C@@H](C)C(=O)N[C@@H](C)C(=O)N[C@@H](C)C(=O)N[C@@H](C)C(=O)N[C@@H](C)C(=O)N[C@@H](CS)C(=O)N[C@@H](C)C(=O)N[C@@H](C)C(=O)N[C@@H](Cc1c[nH]c2ccccc12)C(=O)N[C@@H](C)C(=O)N[C@@H](C)C(=O)N[C@@H](CC(C)C)C(=O)N[C@@H](C)C(=O)N[C@@H](C)C(=O)N[C@@H](C)C(=O)N[C@@H](CCCCN)C(=O)N[C@@H](CCCCN)C(=O)N[C@@H](CCCCN)C(=O)N[C@@H](CCCCN)C(N)=O [[C25]] (H-KKAAALAAAAACAAWAALAAAKKKK-NH2; N-terminus assumed) | + | + | 16 µM (≈ 37.9 µg/mL) | 0.78 | 2.49 | 1.02 | 1.02 | 1 µM (≈ 2.37 µg/mL) | + | >32 µM | + | 8 µM (≈ 18.9 µg/mL) | – | – | – | –
2 | C[C@H](NC(=O)[C@H](C)NC(=O)[C@H](C)NC(=O)[C@H](Cc1ccc(O)cc1)NC(=O)[C@H](C)NC(=O)[C@H](C)NC(=O)[C@H](C)NC(=O)[C@H](CCCCN)NC(=O)[C@@H](N)CCCCN)C(=O)N[C@@H](C)C(=O)N[C@@H](C)C(=O)N[C@@H](Cc1ccc(O)cc1)C(=O)N[C@@H](C)C(=O)N[C@@H](C)C(=O)N[C@@H](Cc1c[nH]c2ccccc12)C(=O)N[C@@H](C)C(=O)N[C@@H](C)C(=O)N[C@@H](Cc1ccc(O)cc1)C(=O)N[C@@H](C)C(=O)N[C@@H](C)C(=O)N[C@@H](C)C(=O)N[C@@H](CCCCN)C(=O)N[C@@H](CCCCN)C(=O)N[C@@H](CCCCN)C(=O)N[C@@H](CCCCN)C(N)=O [Peptide Y25] (H-KKAAAYAAAAAYAAWAAYAAAKKKK-NH2; N-terminus assumed) | – | – | 32 µM (≈ 80.9 µg/mL) | 0.71 | 2.00 | 0.71 | 0.71 | <0.25 µM | – | 8 µM (≈ 20.2 µg/mL) | – | 16 µM (≈ 40.4 µg/mL) | 5 µM (≈ 12.6 µg/mL) | 11 µM (≈ 27.8 µg/mL) | 0.2 µM (≈ 0.506 µg/mL) | 3 µM (≈ 7.58 µg/mL)
3 | CC[C@H](C)[C@H](NC(=O)[C@H](C)NC(=O)[C@H](C)NC(=O)[C@H](C)NC(=O)[C@H](CCCCN)NC(=O)[C@@H](N)CCCCN)C(=O)N[C@@H](C)C(=O)N[C@@H](C)C(=O)N[C@@H](C)C(=O)N[C@@H](C)C(=O)N[C@@H](C)C(=O)N[C@H](C(=O)N[C@@H](C)C(=O)N[C@@H](C)C(=O)N[C@@H](Cc1c[nH]c2ccccc12)C(=O)N[C@@H](C)C(=O)N[C@@H](C)C(=O)N[C@H](C(=O)N[C@@H](C)C(=O)N[C@@H](C)C(=O)N[C@@H](C)C(=O)N[C@@H](CCCCN)C(=O)N[C@@H](CCCCN)C(=O)N[C@@H](CCCCN)C(=O)N[C@@H](CCCCN)C(N)=O)[C@@H](C)CC)[C@@H](C)CC [Peptide I25] (H-KKAAAIAAAAAIAAWAAIAAAKKKK-NH2; N-terminus assumed) | – | – | >32 µM | 1.09 | 4.41 | 1.09 | 1.09 | <0.25 µM | – | 4 µM (≈ 9.51 µg/mL) | – | 16 µM (≈ 38 µg/mL) | 10 µM (≈ 23.8 µg/mL) | 10 µM (≈ 23.8 µg/mL) | – | 5 µM (≈ 11.9 µg/mL)
4 | CSCC[C@H](NC(=O)[C@H](C)NC(=O)[C@H](C)NC(=O)[C@H](C)NC(=O)[C@H](CCCCN)NC(=O)[C@@H](N)CCCCN)C(=O)N[C@@H](C)C(=O)N[C@@H](C)C(=O)N[C@@H](C)C(=O)N[C@@H](C)C(=O)N[C@@H](C)C(=O)N[C@@H](CCSC)C(=O)N[C@@H](C)C(=O)N[C@@H](C)C(=O)N[C@@H](Cc1c[nH]c2ccccc12)C(=O)N[C@@H](C)C(=O)N[C@@H](C)C(=O)N[C@@H](CCSC)C(=O)N[C@@H](C)C(=O)N[C@@H](C)C(=O)N[C@@H](C)C(=O)N[C@@H](CCCCN)C(=O)N[C@@H](CCCCN)C(=O)N[C@@H](CCCCN)C(=O)N[C@@H](CCCCN)C(N)=O [[M25]] (H-KKAAAMAAAAAMAAWAAMAAAKKKK-NH2; N-terminus assumed) | + | + | >32 µM | 0.90 | 3.23 | 0.89 | 0.90 | 0.5 µM (≈ 1.22 µg/mL) | + | 16 µM (≈ 38.9 µg/mL) | + | 32 µM (≈ 77.8 µg/mL) | – | – | – | –
